This is an account of results in patent publication US4427686A, “Pharmacologically active benzopyranotriazole compounds” (Beecham Group Limited, priority 1980, dated 1984).

The subject of assay [1] is slow reacting substance of anaphylaxis, SRS-A, on isolated guinea pig ileum. Description: SRS-A Antagonism on Guinea Pig Ileum. As to conditions: atropine 5×10^-7 M and mepyramine 10^-6 M, sodium salt, read-out: Approximate concentration to give a 50% inhibition of a less than maximal response to SRS-A. Set-up: species or system guinea pig (Dunkin Hartley male). As for the experimental part: (b) antagonise the spasmogenic effects of slow reacting substance of anaphylaxis, SRS-A, on isolated guinea pig ileum.
(§1) The compounds were used in the form of their sodium salts.
(§2) Charles River Sprague Dawley male rats of 250-300 g. and Dunkin Hartley male white guinea pigs of 250-300 g. were used.
The compounds were evaluated as direct antagonists of slow reacting substance of anaphylaxis (SRS-A) by assay using the isolated guinea pig ileum.
SRS-A rat was obtained from the peritoneal cavity of the rat after passive peritoneal anaphylaxis by a method based on that of R. P. Orange, D. J. Stechschulte and K. F. Austen, J. Immunology, 105, 1087 (1970) as described by J. W. Ross, H. Smith and B. A. Spicer 1976, Increased vascular permeability during passive peritoneal anaphylaxis in the rat. Int. Arch. Allergy appl., 51, 226. The sensitising serum containing antibody was produced in rats as described by J. W. Ross et. al., ibid.
2 ml of a 1 in 5 dilution of the sensitising serum was injected by the peritoneal route into recipient rats and after 2 hours 5 ml of Tyrode's solution containing 0.4 mg/ml ovalbumin (Sigma Grade III) and 50 μg/ml heparin was injected by the same route. Five minutes after challenge the rats were stunned and bled and the peritoneal fluids collected into polycarbonate tubes in ice. After centrifugation at 150 g. for five minutes the supernatants were combined, heated in a boiling water bath for five minutes, cooled and stored at -20° C. The combined peritoneal fluids contained SRS-A and were used in the antagonism studies.
The SRS-A assays were carried out on isolated strips of guinea pig ileum in Tyrode's solution containing atropine 5×10^-7 M and mepyramine 10^-6 M as described by W. E. Brocklehurst, J. Physiology, 151, 416 (1960).
The ability of the antagonists was determined by their ability to reduce submaximal responses induced by SRS-A. The antagonists were added to the 4 ml bath in 0.1 ml volumes in aqueous solution half a minute before the addition of SRS-A and were present during induced contraction.

Assay [2] concerns rat passive peritoneal anaphylaxis. Briefly: Rat Passive Peritoneal Anaphylaxis (PPA). It is filed as in vivo, rat (Charles River Sprague Dawley male). The note with it: Mean ± SEM, 5-7 rats per group, sodium salt.
Text: (a) inhibit rat passive peritoneal anaphylaxis; and
as §1, §2
The method has been described previously. (Ross, Janet W., Smith, H. and Spicer, Barbara A. Increased vascular permeability during passive peritoneal anaphylaxis in the rate. Int. Arch. Allergy appl. Immun., 51, 226, 1976).
Rats were sensitised by giving an intraperitoneal injection of 0.5 ml of Bordetella pertussis vaccine (4×10^10 organisms/ml Burroughs Wellcome, London) and a subcutaneous injection of 0.5 ml of an emulsion of 100 mg of ovalbumin (chicken egg albumin, crystallised and lyophilised, grade 3, Sigma, London) in 2 ml of isotonic saline and 3 ml of Freund's incomplete adjuvant (Difco Laboratories, Michigan, USA).
The rats were bled by cardiac puncture, on day 18, the blood was pooled, and the serum separated, stored at -20° C. and thawed only once before use.
Rats were each given an intraperitoneal injection of 2 ml of a 1 in 5 dilution of the rat anti-serum in isotonic saline. Two hours later 0.3 ml of a 5% solution of Pontamine Sky Blue (Raymond A. Lamb, London) in isotonic saline was injected intravenously, followed by an intraperitoneal injection of the test compound in 1 ml of saline; (control rats received 1 ml of saline); followed 30 seconds later by an intraperitoneal injection of 5 ml of Tyrode's solution containing 50 μg/ml heparin and 0.4 mg/ml of ovalbumin. The concentrations of the compounds are quoted as those in the 6 ml of fluid injected intraperitoneally. Exactly five minutes after challenge the rats were stunned and bled and their peritoneal fluids were collected by opening their peritoneal cavities over funnels into polycarbonate tubes in ice. The supernatants were separated from the cellular residue by centrifugation at 150 g. for five minutes and were retained for assay of dye and histamine. Any samples obviously contaminated with blood were not used for estimation of dye. Groups of at least five rats were used for each dose of compound and the treatments were randomised.
Dye was assayed within two hours by measurement of optical density (OD) at 625 nm.
For histamine assay 0.5 ml samples of the supernatants were added to 1 ml volumes of 12% trichloracetic acid and stored at -20° C. The deproteinised samples were assayed using an automated spectrofluorimetric system (Technicon Autoanalyser) by a method similar to that of Evans, D. P., Lewis, J. A. and Thomson, D. S.: (An automated fluorimetric assay for the rapid determination of histamine in biological fluids. Life Sci., 12, 327, 1973).

The subject of a further assay is released SRS-A. As to conditions: background art; cited from earlier work.
Assay [3] deals with release of allergic response mediators. The note with it: background art; cited from earlier work.

As to `CCCc1c(OCC(O)COc2ccc3c(=O)c4[nH]nnc4oc3c2)ccc(C(C)=O)c1O` (stereo not shown) [Example 3, 6-[3-(4-Acetyl-3-hydroxy-2-n-propylphenoxy)-2-hydroxypropan-1-yloxy]-9-oxo-1H,9H-benzopyrano[2,3-d]-v-triazole], the IC50 in assay [1] was roughly 63 nM. Besides, in assay [2] (2 × 10^-6 M injected ip), the “Dye concentration in peritoneal fluid as % of mean of controls” value is recorded as 51 ± 5 % of mean of controls and the “Histamine concentration in peritoneal fluid as % of mean of controls” value is 16 ± 2 % of mean of controls. Besides, in assay [2] (2 × 10^-7 M injected ip), the “Dye concentration in peritoneal fluid as % of mean of controls” value is on record as 74 ± 9 % of mean of controls and the “Histamine concentration in peritoneal fluid as % of mean of controls” value is 56 ± 5 % of mean of controls.

`CCCc1c(OCC(O)COc2ccc3c(=O)c4[nH]nnc4oc3c2C)ccc(C(C)=O)c1O` (stereo not shown) [Example 2, 6-[3-(4-Acetyl-3-hydroxy-2-n-propylphenoxy)-2-hydroxypropan-1-yloxy]-5-methyl-9-oxo-1H,9H-benzopyrano[2,3-d]-v-triazole]: the IC50 in assay [1] was roughly 32 nM. Also, in assay [2] (2 × 10^-6 M injected ip), the “Dye concentration in peritoneal fluid as % of mean of controls” value is 42 ± 5 % of mean of controls and the “Histamine concentration in peritoneal fluid as % of mean of controls” value is reported as 14 ± 2 % of mean of controls. In addition, in assay [2] (2 × 10^-7 M injected ip), the “Dye concentration in peritoneal fluid as % of mean of controls” value is 61 ± 7 % of mean of controls and the “Histamine concentration in peritoneal fluid as % of mean of controls” value was 56 ± 1 % of mean of controls.

In the case of `CCCc1c(OCCCOc2ccc3c(=O)c4[nH]nnc4oc3c2C)ccc(C(C)=O)c1O` [Example 1, 6-[3-(4-Acetyl-3-hydroxy-2-n-propylphenoxy)propan-1-yloxy]-5-methyl-9-oxo-1H,9H-benzopyrano[2,3,d]-v-triazole], the IC50 in assay [1] is roughly 100 nM. In addition, in assay [2] (2 × 10^-5 M injected ip), the “Dye concentration in peritoneal fluid as % of mean of controls” value is recorded as 54 ± 7 % of mean of controls and the “Histamine concentration in peritoneal fluid as % of mean of controls” value is 17 ± 2 % of mean of controls. For the same compound, in assay [2] (2 × 10^-6 M injected ip), the “Dye concentration in peritoneal fluid as % of mean of controls” value is 63 ± 5 % of mean of controls and the “Histamine concentration in peritoneal fluid as % of mean of controls” value is given as 18 ± 2 % of mean of controls.

Turning to `CCCc1c(OCCCOc2cccc3oc4nn[nH]c4c(=O)c23)ccc(C(C)=O)c1O` [Example 4, 8-[3-(4-Acetyl-3-hydroxy-2-n-propylphenoxy)-propan-1-yloxy]-9-oxo-1H,9H-benzopyrano-[2,3-d]-v-triazole], the IC50 in assay [1] was roughly 50 nM. For the same compound, in assay [2] (2 × 10^-5 M injected ip), the “Dye concentration in peritoneal fluid as % of mean of controls” value is reported as 92 ± 10 % of mean of controls and the “Histamine concentration in peritoneal fluid as % of mean of controls” value is reported as 42 ± 6 % of mean of controls. Besides, in assay [2] (2 × 10^-6 M injected ip), the “Dye concentration in peritoneal fluid as % of mean of controls” value is 104 ± 20 % of mean of controls and the “Histamine concentration in peritoneal fluid as % of mean of controls” value is 89 ± 7 % of mean of controls.

Turning to `CCCc1c(OCC(O)COc2ccc3c(=O)cc(C(=O)O)oc3c2CCC)ccc(C(C)=O)c1O` (stereo not shown) [FPL 55712], the “inhibition of released SRS-A” value in the assay on released SRS-A is “inhibit released SRS-A”. Further, the “inhibition of release of allergic response mediators” value in assay [3] is “able to effect at least some inhibition of release of these allergic response mediators”.
